Measured values as given in US11377469B2, “CD73 inhibitors” (ORIC Pharmaceuticals, Inc., priority 2017, dated 2022).

Target: CD73 (Homo sapiens (Human), UniProt P21589)
Experiment: Biochemical Assay (CD73 inhibition, AMP hydrolysis, Malachite Green readout)
Conditions: CD73 0.3208 nM, AMP 15 μM, Tris-HCl pH 7.4, Malachite Green absorbance

Sequence of CD73 (P21589 27-574): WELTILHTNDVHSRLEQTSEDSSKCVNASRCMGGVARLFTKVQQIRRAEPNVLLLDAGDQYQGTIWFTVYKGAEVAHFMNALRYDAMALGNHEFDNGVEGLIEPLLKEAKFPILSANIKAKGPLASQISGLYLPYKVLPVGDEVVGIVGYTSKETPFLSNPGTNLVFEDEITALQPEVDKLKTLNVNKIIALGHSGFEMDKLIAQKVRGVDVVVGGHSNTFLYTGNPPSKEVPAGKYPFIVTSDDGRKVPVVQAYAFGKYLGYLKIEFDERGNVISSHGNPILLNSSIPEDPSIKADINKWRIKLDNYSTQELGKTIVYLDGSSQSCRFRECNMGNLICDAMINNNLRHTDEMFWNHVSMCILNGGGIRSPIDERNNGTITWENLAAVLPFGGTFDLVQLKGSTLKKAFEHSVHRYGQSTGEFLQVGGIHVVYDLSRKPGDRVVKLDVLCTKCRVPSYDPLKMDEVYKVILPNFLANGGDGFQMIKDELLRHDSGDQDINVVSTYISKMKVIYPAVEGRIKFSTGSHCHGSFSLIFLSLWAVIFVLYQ

| Structure (SMILES) | IC50 [nM] |
| --- | --- |
| CC(C)Nc1nc(Cl)nc2c1cnn2[C@@H]1O[C@H](COCP(=O)(O)O)[C@@H](O)[C@H]1O [Example 74, ((((2R,3S,4R,5R)-5-(6-chloro-4-(isopropylamino)-1H-pyrazolo[3,4-d]pyrimidin-1-yl)-3,4-dihydroxytetrahydrofuran-2-yl)methoxy)methyl)phosphonic acid] | ≤ 500 |
| O=P(O)(O)COC[C@H]1O[C@@H](n2ncc3c(Nc4ccccc4)nc(Cl)nc32)[C@H](O)[C@@H]1O [Example 75, ((((2R,3S,4R,5R)-5-(6-chloro-4-(phenylamino)-1H-pyrazolo[3,4-d]pyrimidin-1-yl)-3,4-dihydroxytetrahydrofuran-2-yl)methoxy)methyl)phosphonic acid] | ≤ 500 |
| CCC(CC)Nc1nc(Cl)nc2c1cnn2[C@@H]1O[C@H](COCP(=O)(O)O)[C@@H](O)[C@H]1O [Example 78, ((((2R,3S,4R,5R)-5-(6-chloro-4-(pentan-3-ylamino)-1H-pyrazolo[3,4-d]pyrimidin-1-yl)-3,4-dihydroxytetrahydrofuran-2-yl)methoxy)methyl)phosphonic acid] | ≤ 500 |
| O=P(O)(O)COC[C@H]1O[C@@H](n2ncc3c(NC4CCC4)nc(Cl)nc32)[C@H](O)[C@@H]1O [Example 79, ((((2R,3S,4R,5R)-5-(6-chloro-4-(cyclobutylamino)-1H-pyrazolo[3,4-d]pyrimidin-1-yl)-3,4-dihydroxytetrahydrofuran-2-yl)methoxy)methyl)phosphonic acid] | ≤ 500 |
| O=P(O)(O)COC[C@H]1O[C@@H](n2ncc3c(N4CCCC4)nc(Cl)nc32)[C@H](O)[C@@H]1O [Example 81, ((((2R,3S,4R,5R)-5-(6-chloro-4-(pyrrolidin-1-yl)-1H-pyrazolo[3,4-d]pyrimidin-1-yl)-3,4-dihydroxytetrahydrofuran-2-yl)methoxy)methyl)phosphonic acid] | ≤ 500 |
| COc1nc(NCC2CC2)c2cnn([C@@H]3O[C@H](COCP(=O)(O)O)[C@@H](O)[C@H]3O)c2n1 [Example 82, ((((2R,3S,4R,5R)-5-(4-((cyclopropylmethyl)amino)-6-methoxy-1H-pyrazolo[3,4-d]pyrimidin-1-yl)-3,4-dihydroxytetrahydrofuran-2-yl)methoxy)methyl)phosphonic acid] | 500 to 1000 |
| CN(CC1CC1)c1nc(Cl)nc2c1cnn2[C@@H]1O[C@H](CS(=O)(=O)CP(=O)(O)O)[C@@H](O)[C@H]1O [Example 84, (((((2S,3S,4R,5R)-5-(6-chloro-4-((cyclopropylmethyl)(methyl)amino)-1H-pyrazolo[3,4-d]pyrimidin-1-yl)-3,4-dihydroxytetrahydrofuran-2-yl)methyl)sulfonyl)methyl)phosphonic acid] | ≤ 500 |
| O=P(O)(O)COC[C@H]1O[C@@H](n2ncc3c(NCC4CC(F)(F)C4)nc(Cl)nc32)[C@H](O)[C@@H]1O [Example 86] | ≤ 500 |
| O=P(O)(O)COC[C@H]1O[C@@H](n2ncc3c(NC4CC(F)(F)C4)nc(Cl)nc32)[C@H](O)[C@@H]1O [Example 87, ((((2R,3S,4R,5R)-5-(6-chloro-4-((3,3-difluorocyclobutyl)amino)-1H-pyrazolo[3,4-d]pyrimidin-1-yl)-3,4-dihydroxytetrahydrofuran-2-yl)methoxy)methyl)phosphonic acid] | ≤ 500 |
| C[C@H](Nc1nc(Cl)nc2c1cnn2[C@@H]1O[C@H](COCP(=O)(O)O)[C@@H](O)[C@H]1O)C1CC1 [Example 91, ((((2R,3S,4R,5R)-5-(6-chloro-4-(((S)-1-cyclopropylethyl)amino)-1H-pyrazolo[3,4-d]pyrimidin-1-yl)-3,4-dihydroxytetrahydrofuran-2-yl)methoxy)methyl)phosphonic acid] | ≤ 500 |
| C[C@@H](Nc1nc(Cl)nc2c1cnn2[C@@H]1O[C@H](COCP(=O)(O)O)[C@@H](O)[C@H]1O)C1CC1 [Example 92, ((((2R,3S,4R,5R)-5-(6-chloro-4-(((R)-1-cyclopropylethyl)amino)-1H-pyrazolo[3,4-d]pyrimidin-1-yl)-3,4-dihydroxytetrahydrofuran-2-yl)methoxy)methyl)phosphonic acid] | ≤ 500 |
| O=P(O)(O)COC[C@H]1O[C@@H](n2ncc3c(NC4CCCCC4)nc(Cl)nc32)[C@H](O)[C@@H]1O [Example 93, ((((2R,3S,4R,5R)-5-(6-chloro-4-(cyclohexylamino)-1H-pyrazolo[3,4-d]pyrimidin-1-yl)-3,4-dihydroxytetrahydrofuran-2-yl)methoxy)methyl)phosphonic acid] | ≤ 500 |
| O=P(O)(O)COC[C@H]1O[C@@H](n2nnc3c(NC4CCCC4)nc(Cl)nc32)[C@H](O)[C@@H]1O [Example 95, ((((2R,3S,4R,5R)-5-(5-chloro-7-(cyclopentylamino)-3H-[1,2,3]triazolo[4,5-d]pyrimidin-3-yl)-3,4-dihydroxytetrahydrofuran-2-yl)methoxy)methyl)phosphonic acid] | ≤ 500 |
| CC1(CNc2nc(Cl)nc3c2cnn3[C@@H]2O[C@H](COCP(=O)(O)O)[C@@H](O)[C@H]2O)CC1 [Example 96, ((((2R,3S,4R,5R)-5-(6-chloro-4-(((1-methylcyclopropyl)methyl)amino)-1H-pyrazolo[3,4-d]pyrimidin-1-yl)-3,4-dihydroxytetrahydrofuran-2-yl)methoxy)methyl)phosphonic acid] | ≤ 500 |
| Cc1cc2c(NCC3CC3)nc(Cl)nc2n1[C@@H]1O[C@H](COCP(=O)(O)O)[C@@H](O)[C@H]1O [Example 97, ((((2R,3S,4R,5R)-5-(2-chloro-4-((cyclopropylmethyl)amino)-6-methyl-7H-pyrrolo[2,3-d]pyrimidin-7-yl)-3,4-dihydroxytetrahydrofuran-2-yl)methoxy)methyl)phosphonic acid] | > 1000 |
| CC(=O)N(c1nc(Cl)nc2c1cnn2[C@@H]1O[C@H](COCP(=O)(O)O)[C@@H](O)[C@H]1O)C1CCCC1 [Example 99, ((((2R,3S,4R,5R)-5-(6-Chloro-4-(N-cyclopentylacetamido)-1H-pyrazolo[3,4-d]pyrimidin-1-yl)-3,4-dihydroxytetrahydrofuran-2-yl)methoxy)methyl)phosphonic acid] | ≤ 500 |
| Cc1ccc(-c2nc(Cl)nc3c2cnn3[C@@H]2O[C@H](COCP(=O)(O)O)[C@@H](O)[C@H]2O)o1 [Example 100, ((((2R,3S,4R,5R)-5-(6-chloro-4-(5-methylfuran-2-yl)-1H-pyrazolo[3,4-d]pyrimidin-1-yl)-3,4-dihydroxytetrahydrofuran-2-yl)methoxy)methyl)phosphonic acid] | ≤ 500 |

Now from value to compound:

| IC50 [nM] | Structure (SMILES) |
| --- | --- |
| ≤ 500 | O=P(O)(O)COC[C@H]1O[C@@H](n2ncc3c(NC4CC4)nc(Cl)nc32)[C@H](O)[C@@H]1O [Example 76, ((((2R,3S,4R,5R)-5-(6-chloro-4-(cyclopropylamino)-1H-pyrazolo[3,4-d]pyrimidin-1-yl)-3,4-dihydroxytetrahydrofuran-2-yl)methoxy)methyl)phosphonic acid] |
| ≤ 500 | O=P(O)(O)COC[C@H]1O[C@@H](n2ncc3c(N[C@@H]4CCOC4)nc(Cl)nc32)[C@H](O)[C@@H]1O [Example 80, ((((2R,3S,4R,5R)-5-(6-chloro-4-(((R)-tetrahydrofuran-3-yl)amino)-1H-pyrazolo[3,4-d]pyrimidin-1-yl)-3,4-dihydroxytetrahydrofuran-2-yl)methoxy)methyl)phosphonic acid] |
| ≤ 500 | O=P(O)(O)COC[C@H]1O[C@@H](n2ncc3c(N4CCC4)nc(Cl)nc32)[C@H](O)[C@@H]1O [Example 83, ((((2R,3S,4R,5R)-5-(4-(azetidin-1-yl)-6-chloro-1H-pyrazolo[3,4-d]pyrimidin-1-yl)-3,4-dihydroxytetrahydrofuran-2-yl)methoxy)methyl)phosphonic acid] |
| > 1000 | O=P(O)(O)COCC[C@H]1O[C@@H](n2ncc3c(NCC4CC4)nc(Cl)nc32)[C@H](O)[C@@H]1O [Example 85, ((2-((2R,3S,4R,5R)-5-(6-chloro-4-((cyclopropylmethyl)amino)-1H-pyrazolo[3,4-d]pyrimidin-1-yl)-3,4-dihydroxytetrahydrofuran-2-yl)ethoxy)methyl)phosphonic acid] |
| > 1000 | O=P(O)(O)CS(=O)(=O)CC[C@H]1O[C@@H](n2ncc3c(NCC4CC4)nc(Cl)nc32)[C@H](O)[C@@H]1O [Example 88, (((2-((2R,3S,4R,5R)-5-(6-chloro-4-((cyclopropylmethy)amino)-1H-pyrazolo[3,4-d]pyrimidin-1-yl)-3,4-dihydroxytetrahydrofuran-2-yl)ethyl)sulfonyl)methyl)phosphonic acid] |
| ≤ 500 | C[C@]1(O)C[C@@H](CNc2nc(Cl)nc3c2cnn3[C@@H]2O[C@H](COCP(=O)(O)O)[C@@H](O)[C@H]2O)C1 [Example 89, ((((2R,3S,4R,5R)-5-(6-chloro-4-((((1s,3S)-3-hydroxy-3-methylcyclobutyl)methyl)amino)-1H-pyrazolo[3,4-d]pyrimidin-1-yl)-3,4-dihydroxytetrahydrofuran-2-yl)methoxy)methyl)phosphonic acid] |
| 500 to 1000 | O=P(O)(O)COC[C@H]1O[C@@H](n2ncc3c(NCc4ncccn4)nc(Cl)nc32)[C@H](O)[C@@H]1O [Example 90, ((((2R,3S,4R,5R)-5-(6-chloro-4-((pyrimidin-2-ylmethyl)amino)-1H-pyrazolo[3,4-d]pyrimidin-1-yl)-3,4-dihydroxytetrahydrofuran-2-yl)methoxy)methyl)phosphonic acid] |
| ≤ 500 | O=P(O)(O)COC[C@H]1O[C@@H](n2ncc3c(NCCC4CC4)nc(Cl)nc32)[C@H](O)[C@@H]1O [Example 94, ((((2R,3S,4R,5R)-5-(6-chloro-4-((2-cyclopropylethyl)amino)-1H-pyrazolo[3,4-d]pyrimidin-1-yl)-3,4-dihydroxytetrahydrofuran-2-yl)methoxy)methyl)phosphonic acid] |
| ≤ 500 | CN(C[C@H]1O[C@@H](n2ncc3c(NC4CCCC4)nc(Cl)nc32)[C@H](O)[C@@H]1O)S(=O)(=O)CP(=O)(O)O [Example 98, ((N-(((2R,3S,4R,5R)-5-(6-Chloro-4-(cyclopentylamino)-1H-pyrazolo[3,4-d]pyrimidin-1-yl)-3,4-dihydroxytetrahydrofuran-2-yl)methyl)-N-methylsulfamoyl)methyl)phosphonic acid] |
